Measured values reported in PubChem BioAssay (NCI).
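Cells were grown in 96-well plates and exposed to each compound for 48 hours at five concentrations; endpoints were interpolated linearly between bracketing concentrations, or set to the highest concentration if not reached. The concentration for 50% growth inhibition is given as GI50. TGI denotes the concentration required for complete inhibition of growth.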

Tests used:
Experiment in all cases: NCI anticancer screen, dose series, 48 h
MDA-MB-468 breast = test system: MDA-MB-468 breast
SN12C renal = test system: SN12C renal
MALME-3M melanoma = test system: MALME-3M melanoma
HCC-2998 colon = test system: HCC-2998 colon
MCF7 breast = test system: MCF7 breast
SK-OV-3 ovarian = test system: SK-OV-3 ovarian
SW-620 colon = test system: SW-620 colon
SK-MEL-28 melanoma = test system: SK-MEL-28 melanoma
CCRF-CEM leukemia = test system: CCRF-CEM leukemia
NCI-H460 lung = test system: NCI-H460 lung
ACHN renal = test system: ACHN renal
HL-60(TB) leukemia = test system: HL-60(TB) leukemia
K-562 leukemia = test system: K-562 leukemia
A549 NSCLC = test system: A549 NSCLC
HS 578T breast = test system: HS 578T breast
OVCAR-5 ovarian = test system: OVCAR-5 ovarian
HCT-15 colon = test system: HCT-15 colon
OVCAR-3 ovarian = test system: OVCAR-3 ovarian
SF-539 CNS = test system: SF-539 CNS
786-0 renal = test system: 786-0 renal
LOX IMVI melanoma = test system: LOX IMVI melanoma
HCT-116 colon = test system: HCT-116 colon
BT-549 breast = test system: BT-549 breast
U251 CNS = test system: U251 CNS
SNB-75 CNS = test system: SNB-75 CNS
HOP-92 NSCLC = test system: HOP-92 NSCLC
RPMI-8226 leukemia = test system: RPMI-8226 leukemia
HOP-62 NSCLC = test system: HOP-62 NSCLC
UO-31 renal = test system: UO-31 renal
NCI-H23 lung = test system: NCI-H23 lung
SNB-19 CNS = test system: SNB-19 CNS
KM12 colon = test system: KM12 colon
EKVX NSCLC = test system: EKVX NSCLC
SF-268 CNS = test system: SF-268 CNS
NCI-H522 lung = test system: NCI-H522 lung
UACC-62 melanoma = test system: UACC-62 melanoma
MOLT-4 leukemia = test system: MOLT-4 leukemia
UACC-257 melanoma = test system: UACC-257 melanoma
NCI-H226 lung = test system: NCI-H226 lung
SR leukemia = test system: SR leukemia
A498 renal = test system: A498 renal
IGROV1 ovarian = test system: IGROV1 ovarian
CAKI-1 renal = test system: CAKI-1 renal
RXF 393 renal = test system: RXF 393 renal
COLO 205 colon = test system: COLO 205 colon
SK-MEL-5 melanoma = test system: SK-MEL-5 melanoma
SF-295 CNS = test system: SF-295 CNS
HT29 colon = test system: HT29 colon
TK-10 renal = test system: TK-10 renal
MDA-MB-435 = test system: MDA-MB-435
PC-3 prostate = test system: PC-3 prostate
MDA-MB-231 breast = test system: MDA-MB-231 breast
OVCAR-4 ovarian = test system: OVCAR-4 ovarian
OVCAR-8 ovarian = test system: OVCAR-8 ovarian
T-47D breast = test system: T-47D breast
DU-145 prostate = test system: DU-145 prostate
SK-MEL-2 melanoma = test system: SK-MEL-2 melanoma
M14 melanoma = test system: M14 melanoma

Structure (SMILES): Cc1ccc(C(C)C)cc1NC(=O)Nc1ccc([N+](=O)[O-])cc1
- GI50 (MDA-MB-468 breast): 2.39 µM
- TGI (MDA-MB-468 breast): 6.82 µM

Structure (SMILES): O=C(Nc1ccccc1C(=O)N/N=C(\c1ccccc1)c1ccccn1)c1ccc(F)cc1
- GI50 (MDA-MB-468 breast): 0.192 µM
- TGI (MDA-MB-468 breast): 1.11 µM

Structure (SMILES): CCOc1cc(-c2ccc[nH]2)[nH]c1/C=C1\N=C(C)C(C(=O)OC)=C1C
- GI50 (MDA-MB-468 breast): 0.0583 µM
- TGI (MDA-MB-468 breast): 0.444 µM

Structure (SMILES): CC1(C)OC2C(COS(N)(=O)=O)SC(n3cnc4cncnc43)C2O1 (centres undefined)
- GI50 (MDA-MB-468 breast): > 100 µM
- TGI (MDA-MB-468 breast): > 100 µM

Structure (SMILES): Cc1cc(C(O)CN(C)C)cc2c1ccc1cc(C(C)C)ccc12 (centres undefined)
- GI50 (MDA-MB-468 breast): 1.85 µM
- TGI (MDA-MB-468 breast): 3.47 µM

Structure (SMILES): Cc1nc(N)nc2ccccc12
- GI50 (MDA-MB-468 breast): > 100 µM
- TGI (MDA-MB-468 breast): > 100 µM

Structure (SMILES): CN1CCN(c2nc(-c3ccncc3)nc3sc4c(c23)CCCCCC4)CC1
- GI50 (MDA-MB-468 breast): 5.2 µM
- TGI (MDA-MB-468 breast): 20.2 µM

Structure (SMILES): O=C(Nc1cccc(-n2cc(-c3ccncc3)c(-c3ccc(O)c(Cl)c3)n2)c1)c1cccc(C(F)(F)F)c1
- GI50 (MDA-MB-468 breast): 3.19 µM
- TGI (MDA-MB-468 breast): > 100 µM

Structure (SMILES): Nc1[nH]c(=O)ncc1CO
- GI50 (MDA-MB-468 breast): > 100 µM
- TGI (MDA-MB-468 breast): > 100 µM

Structure (SMILES): O=C(c1ccc(Cl)cc1)C1[C@H](c2ccc(Br)cc2)[C@@H](c2ccccc2)NC12C(=O)Nc1ccc(Cl)cc12 (some centres undefined)
- GI50 (SN12C renal): 1880 nM
- TGI (SN12C renal): 7.17 µM
- GI50 (MALME-3M melanoma): 7.09 µM
- TGI (MALME-3M melanoma): 13.9 µM
- GI50 (HCC-2998 colon): 1630 nM
- TGI (HCC-2998 colon): 7.02 µM
- GI50 (MCF7 breast): 1690 nM
- TGI (MCF7 breast): 6.82 µM
- GI50 (SK-OV-3 ovarian): 7.36 µM
- TGI (SK-OV-3 ovarian): 17.3 µM
- GI50 (MDA-MB-468 breast): 3.54 µM
- TGI (MDA-MB-468 breast): 11.4 µM
- GI50 (SW-620 colon): 3.35 µM
- TGI (SW-620 colon): 10.7 µM
- GI50 (SK-MEL-28 melanoma): 5.78 µM
- TGI (SK-MEL-28 melanoma): 12.2 µM
- GI50 (CCRF-CEM leukemia): 2790 nM
- TGI (CCRF-CEM leukemia): 13 µM
- GI50 (NCI-H460 lung): 1660 nM
- TGI (NCI-H460 lung): 7.49 µM
- GI50 (ACHN renal): 2170 nM
- TGI (ACHN renal): 8.6 µM
- GI50 (HL-60(TB) leukemia): 4.65 µM
- TGI (HL-60(TB) leukemia): 16.7 µM
- GI50 (K-562 leukemia): 1640 nM
- TGI (K-562 leukemia): 11.7 µM
- GI50 (A549 NSCLC): 2310 nM
- TGI (A549 NSCLC): 9.53 µM
- GI50 (HS 578T breast): 6.82 µM
- TGI (HS 578T breast): 23 µM
- GI50 (OVCAR-5 ovarian): 5.95 µM
- TGI (OVCAR-5 ovarian): 12.6 µM
- GI50 (HCT-15 colon): 2150 nM
- TGI (HCT-15 colon): 8.97 µM
- GI50 (OVCAR-3 ovarian): 4.02 µM
- TGI (OVCAR-3 ovarian): 11 µM
- GI50 (SF-539 CNS): 6.41 µM
- TGI (SF-539 CNS): 13.1 µM
- GI50 (786-0 renal): 905 nM
- TGI (786-0 renal): 1890 nM
- GI50 (LOX IMVI melanoma): 1830 nM
- TGI (LOX IMVI melanoma): 10.1 µM
- GI50 (HCT-116 colon): 986 nM
- TGI (HCT-116 colon): 3.01 µM
- GI50 (BT-549 breast): 2710 nM
- TGI (BT-549 breast): 9.33 µM
- GI50 (U251 CNS): 3.58 µM
- TGI (U251 CNS): 10.7 µM
- GI50 (SNB-75 CNS): 2450 nM
- TGI (SNB-75 CNS): 11.6 µM
- GI50 (HOP-92 NSCLC): 2300 nM
- TGI (HOP-92 NSCLC): 9.31 µM
- GI50 (RPMI-8226 leukemia): 1990 nM
- TGI (RPMI-8226 leukemia): 13.2 µM
- GI50 (HOP-62 NSCLC): 6.07 µM
- TGI (HOP-62 NSCLC): 13.1 µM
- GI50 (UO-31 renal): 1870 nM
- TGI (UO-31 renal): 8.68 µM
- GI50 (NCI-H23 lung): 3.98 µM
- TGI (NCI-H23 lung): 11.7 µM
- GI50 (SNB-19 CNS): 5.97 µM
- TGI (SNB-19 CNS): 13.2 µM
- GI50 (KM12 colon): 2170 nM
- TGI (KM12 colon): 9.98 µM
- GI50 (EKVX NSCLC): 4.03 µM
- TGI (EKVX NSCLC): 11.7 µM
- GI50 (SF-268 CNS): 2880 nM
- TGI (SF-268 CNS): 11.2 µM
- GI50 (NCI-H522 lung): 4.22 µM
- TGI (NCI-H522 lung): 11.8 µM
- GI50 (UACC-62 melanoma): 2210 nM
- TGI (UACC-62 melanoma): 9.1 µM
- GI50 (MOLT-4 leukemia): 1640 nM
- TGI (MOLT-4 leukemia): 8.26 µM
- GI50 (UACC-257 melanoma): 6.03 µM
- TGI (UACC-257 melanoma): 12.8 µM
- GI50 (NCI-H226 lung): 5.3 µM
- TGI (NCI-H226 lung): 12.2 µM
- GI50 (SR leukemia): 1630 nM
- TGI (SR leukemia): 9.55 µM
- GI50 (A498 renal): 7.48 µM
- TGI (A498 renal): 15 µM
- GI50 (IGROV1 ovarian): 2760 nM
- TGI (IGROV1 ovarian): 9.96 µM
- GI50 (CAKI-1 renal): 1420 nM
- TGI (CAKI-1 renal): 8.42 µM
- GI50 (RXF 393 renal): 2090 nM
- TGI (RXF 393 renal): 9.12 µM
- GI50 (COLO 205 colon): 5.85 µM
- TGI (COLO 205 colon): 14.2 µM
- GI50 (SK-MEL-5 melanoma): 7.68 µM
- TGI (SK-MEL-5 melanoma): 15 µM
- GI50 (SF-295 CNS): 2750 nM
- TGI (SF-295 CNS): 10.1 µM
- GI50 (HT29 colon): 1140 nM
- TGI (HT29 colon): 3.22 µM
- GI50 (TK-10 renal): 5.49 µM
- TGI (TK-10 renal): 12.2 µM
- GI50 (MDA-MB-435): 2810 nM
- TGI (MDA-MB-435): 9.75 µM
- GI50 (PC-3 prostate): 2030 nM
- TGI (PC-3 prostate): 9.08 µM
- GI50 (MDA-MB-231 breast): 4.63 µM
- TGI (MDA-MB-231 breast): 11.3 µM
- GI50 (OVCAR-4 ovarian): 3.65 µM
- TGI (OVCAR-4 ovarian): 11.9 µM
- GI50 (OVCAR-8 ovarian): 5.46 µM
- TGI (OVCAR-8 ovarian): 12.8 µM
- GI50 (T-47D breast): 2130 nM
- TGI (T-47D breast): 9.66 µM
- GI50 (DU-145 prostate): 5.9 µM
- TGI (DU-145 prostate): 13.6 µM
- GI50 (SK-MEL-2 melanoma): 5.51 µM
- TGI (SK-MEL-2 melanoma): 12.1 µM
- GI50 (M14 melanoma): 2060 nM
- TGI (M14 melanoma): 8.82 µM
